Results from patent US7547698B2, “Bicyclic heterocyclic derivatives and their use as inhibitors of stearoyl-coadesaturase (SCD)” (Xenon Pharmaceuticals Inc., priority 2004, dated 2009).

SMILES	melting point
CCCCCNC(=O)c1cn2nc(N3CCN(C(=O)c4ccccc4C(F)(F)F)CC3)ccc2n1	179 to 180 °C
CCCCNC(=O)c1cn2nc(N3CCN(C(=O)c4ccccc4C(F)(F)F)CC3)ccc2n1 [Example 1.6, 6-[4-(2-TRIFLUOROMETHYLBENZOYL)PIPERAZIN-1-YL]IMIDAZO[1,2-B]PYRIDAZINE-2-CARBOXYLIC ACID BUTYLAMIDE]	187 to 189 °C
O=C(Nc1ccc(Cl)cn1)c1cn2nc(N3CCN(C(=O)c4ccccc4C(F)(F)F)CC3)ccc2n1 [Example 1.7, 6-[4-(2-TRIFLUOROMETHYLBENZOYL)PIPERAZIN-1-YL]IMIDAZO[1,2-B]PYRIDAZINE-2-CARBOXYLIC ACID (5-CHLOROPYRIDIN-2-YL)AMIDE]	265 to 268 °C

Other lines, results leading:

melting point	SMILES
205 to 207 °C	O=C(NCc1ccc(F)cc1)c1cn2nc(N3CCN(C(=O)c4ccccc4C(F)(F)F)CC3)ccc2n1 [Example 1.8, 6-[4-(2-TRIFLUOROMETHYLBENZOYL)PIPERAZIN-1-YL]IMIDAZO[1,2-B]PYRIDAZINE-2-CARBOXYLIC ACID 4-FLUOROBENZYLAMIDE]
115 to 117 °C	O=C(Nc1ccc(F)cc1)c1cn2nc(N3CCN(C(=O)c4ccccc4C(F)(F)F)CC3)ccc2n1 [Example 1.9, 6-[4-(2-TRIFLUOROMETHYLBENZOYL)PIPERAZIN-1-YL]-IMIDAZO[1,2-B]PYRIDAZINE-2-CARBOXYLIC ACID (4-FLUOROPHENYL)AMIDE]
